According to ChEMBL document CHEMBL4689842, “EUbOPEN Chemogenomics Library wave 1” (2021):

What was measured:
Type in all cases: toxicity, cell-based
[1] = tested on: U2OS; test: Incucyte cell viability with U2OS; conditions: human, 10 µM, compound concentration 10 uM
[2] = tested on: HEK-293T; test: Incucyte cell viability with HEK293T; conditions: human, 10 µM, compound concentration 10 uM
[3] = tested on: Fibroblast; test: Incucyte cell viability with human fibroblast; conditions: 10 µM, compound concentration 10 uM
[4] = 0 h, replicate number 1, timepoint 0 hours
[5] = 6 h, replicate number 2, timepoint 6 hours
[6] = 12 h, replicate number 1, timepoint 12 hours
[7] = 18 h, replicate number 1, timepoint 18 hours
[8] = 24 h, replicate number 1, timepoint 24 hours
[9] = 6 h, replicate number 1, timepoint 6 hours
[10] = 12 h, replicate number 2, timepoint 12 hours
[11] = 18 h, replicate number 2, timepoint 18 hours
[12] = 24 h, replicate number 2, timepoint 24 hours
[13] = 0 h, replicate number 2, timepoint 0 hours
Note: filed as whole numbers so only -1 and 0 and 1 occur.

Compound	Growth Rate [1, 4]	Growth Rate [1, 5]	Growth Rate [1, 6]	Growth Rate [1, 7]	Growth Rate [1, 8]	Growth Rate [2, 4]	Growth Rate [2, 9]	Growth Rate [2, 5]	Growth Rate [2, 6]	Growth Rate [2, 7]	Growth Rate [2, 8]	Growth Rate [3, 4]	Growth Rate [1, 9]	Growth Rate [1, 11]	Growth Rate [3, 9]	Growth Rate [3, 6]	Growth Rate [3, 7]	Growth Rate [3, 8]	Growth Rate [1, 13]	Growth Rate [1, 10]	other results
C[C@H]1C[C@H]2[C@@H]3CCC4=CC(=O)C=C[C@]4(C)[C@@]3(Cl)[C@@H](O)C[C@]2(C)[C@@]1(O)C(=O)CO [BECLOMETHASONE]	0	0	1	1	1	0	1	0	1	1	1	0	–	–	–	–	–	–	–	–	Growth Rate [2, 10]: 0; Growth Rate [2, 11]: 0; Growth Rate [2, 12]: 0; Growth Rate [3, 5]: 0
O=C1c2ccc(Nc3ccc(F)cc3F)cc2CCc2ccc(OC[C@H](O)CO)cc21 [Skepinone-L]	0	–	0	0	0	–	0	–	–	–	1	–	0	1	0	0	0	0	–	–	–
Cc1c(F)cccc1NC(=O)Nc1ccc(Cl)c(S(=O)(=O)[C@H]2CCCNC2)c1O [DANIRIXIN]	0	1	0	0	0	0	0	–	0	0	0	0	0	1	–	1	1	1	1	1	Growth Rate [1, 12]: 1
O=C(O)[C@H]1[C@H](Cn2nnc3ccccc3c2=O)CC[C@@H]1C(=O)c1ccc(OCCC2CCOCC2)cc1 [BAY-7598]	–	–	1	0	1	0	–	1	1	1	1	0	1	1	1	1	1	1	0	0	Growth Rate [2, 13]: 1
Cc1cc2c(cc1-c1cc(/C=C/C(=O)O)ccc1O)C(C)(C)CCC2(C)C	0	0	1	1	1	0	1	–	1	1	1	0	–	0	–	1	1	1	–	0	–
CC1=C2C[C@H]3[C@@H](CC=C4C[C@@H](O)CC[C@@]43C)[C@@H]2CC[C@]12O[C@@H]1C[C@H](C)CN[C@H]1[C@H]2C [CYCLOPAMINE]	0	0	–	–	1	0	0	–	0	0	0	0	–	1	1	0	0	0	–	1	Growth Rate [3, 13]: 1; Growth Rate [3, 11]: 1
